Test results from patent US10765114B2, “4-amino-6-(pyridyl and 2-substitutedphenyl)-picolinates and 6-amino-2-(pyridyl and 2-substitutedphenyl)-pyrimidine-4-carboxylates and their use as herbicides” (Dow AgroSciences LLC, priority 2013, dated 2020).

How the values were obtained:
Experiment in all cases: Post-Emergent Test III (Wheat and Barley)
APESV (windgrass) = type: in vivo, Apera spica-venti; settings: for pest or weed control at 35 g/ha / pest or weed control at 70 g/ha / pest or weed control at 140 g/ha: Apera spica-venti, post-emergence, 504 h, postemergence, read-out: Visual Growth Reduction (%) 21 Days After Application, APESV; for pest or weed control at 35 g/ha: 35 g ai/ha; for pest or weed control at 70 g/ha: 70 g ai/ha; for GR50, APESV: effective dose for growth reduction of 50 percent; for GR50, APESV / GR80, APESV: probit analysis; for GR80, APESV: effective dose for growth reduction of 80 percent; for pest or weed control at 140 g/ha: 140 g ai/ha
Procedure: (§1) Seeds of the desired test plant species were planted in Sun Gro MetroMix® 306 planting mixture, which typically has a pH of 6.0 to 6.8 and an organic matter content of about 30 percent, in plastic pots with a surface area of 103.2 square centimeters (cm^2). When required to ensure good germination and healthy plants, a fungicide treatment and/or other chemical or physical treatment was applied. The plants were grown for 7-36 days in a greenhouse with an approximate 14 h photoperiod which was maintained at about 18° C. during the day and 17° C. during the night. Nutrients and water were added on a regular basis and supplemental lighting was provided with overhead metal halide 1000-Watt lamps as necessary. The plants were employed for testing when they reached the second or third true leaf stage.
(§2) A weighed amount, determined by the highest rate to be tested, of each test compound was placed in a 25 mL glass vial and was dissolved in 4 mL of a 97:3 v/v mixture of acetone and DMSO to obtain concentrated stock solutions. […] The concentrated stock solutions obtained were diluted with 20 mL of an aqueous mixture containing acetone, water, isopropyl alcohol, DMSO, Agri-Dex crop oil concentrate, and X-77 surfactant in a 48:39:10:1.5:1.5:0.02 v/v ratio to obtain spray solutions containing the highest application rates. Additional application rates were obtained by serial dilution of 12 mL of the high rate solution into a solution containing 2 mL of 97:3 v/v mixture of acetone and DMSO and 10 mL of an aqueous mixture containing acetone, water, isopropyl alcohol, DMSO, Agri-Dex crop oil concentrate, and X-77 surfactant in a 48:39:10:1.5:1.5:0.02 v/v ratio to obtain ½×, ¼×, ⅛× and 1/16× rates of the high rate. Compound requirements are based upon a 12 mL application volume at a rate of 187 liters per hectare (L/ha). Formulated compounds were applied to the plant material with an overhead Mandel track sprayer equipped with 8002E nozzles calibrated to deliver 187 L/ha over an application area of 0.503 square meters at a spray height of 18 inches (43 cm) above the average plant canopy height. Control plants were sprayed in the same manner with the solvent blank.
(§3) The treated plants and control plants were placed in a greenhouse as described above and watered by subirrigation to prevent wash-off of the test compounds. After 21 dAYS, the condition of the test plants as compared with that of the untreated plants was determined visually and scored on a scale of 0 to 100 percent where 0 corresponds to no injury and 100 corresponds to complete kill and presented as indicated in Table A.
(§4) By applying the well-accepted probit analysis as described by J. Berkson in Journal of the American Statistical Society, 48, 565 (1953) and by D. Finney in “Probit Analysis” Cambridge University Press (1952), herbicidal injury of a specific compound at various rates can be used to calculate GR10, GR20, GR50, GR80 and GR90 values, which are defined as growth reduction factors that correspond to the effective dose of herbicide required to provide plant growth reduction (GR) of 10 percent, 20 percent, 50 percent, 80 percent and 90 percent, respectively. Probit analysis was applied to data collected from multiple dose rates of individual compounds utilizing the procedures explained in the following examples. The analysis of those dose rates is captured in the following tables.

HORSS = type: in vivo; settings: for pest or weed control at 35 g/ha / pest or weed control at 70 g/ha / pest or weed control at 140 g/ha: Hordeum vulgare, post-emergence, 504 h, postemergence, read-out: Visual Growth Reduction (%) 21 Days After Application, HORSS; for pest or weed control at 35 g/ha: 35 g ai/ha; for pest or weed control at 70 g/ha: 70 g ai/ha; for GR20, HORSS: effective dose for growth reduction of 20 percent, probit analysis; for pest or weed control at 140 g/ha: 140 g ai/ha
Procedure: as §1, §2, §3, §4

LOLSS = type: in vivo; settings: for pest or weed control at 35 g/ha / pest or weed control at 70 g/ha / pest or weed control at 140 g/ha: post-emergence, 504 h, postemergence, read-out: Visual Growth Reduction (%) 21 Days After Application, LOLSS; for pest or weed control at 35 g/ha: 35 g ai/ha; for pest or weed control at 70 g/ha: 70 g ai/ha; for GR50, LOLSS: effective dose for growth reduction of 50 percent; for GR50, LOLSS / GR80, LOLSS: probit analysis; for GR80, LOLSS: effective dose for growth reduction of 80 percent; for pest or weed control at 140 g/ha: 140 g ai/ha
Procedure: as §1, §2, §3, §4

TRZSS = type: in vivo; settings: for pest or weed control at 35 g/ha / pest or weed control at 70 g/ha / pest or weed control at 140 g/ha: Triticum aestivum, post-emergence, 504 h, postemergence, read-out: Visual Growth Reduction (%) 21 Days After Application, TRZSS; for pest or weed control at 35 g/ha: 35 g ai/ha; for pest or weed control at 70 g/ha: 70 g ai/ha; for GR20, TRZSS: effective dose for growth reduction of 20 percent, probit analysis; for pest or weed control at 140 g/ha: 140 g ai/ha
Procedure: as §1, §2, §3, §4

SETVI (green foxtail) = type: in vivo, Setaria viridis; settings: for pest or weed control at 35 g/ha / pest or weed control at 70 g/ha / pest or weed control at 140 g/ha: Setaria viridis, post-emergence, 504 h, postemergence, read-out: Visual Growth Reduction (%) 21 Days After Application, SETVI; for pest or weed control at 35 g/ha: 35 g ai/ha; for pest or weed control at 70 g/ha: 70 g ai/ha; for GR50, SETVI: effective dose for growth reduction of 50 percent; for GR50, SETVI / GR80, SETVI: probit analysis; for GR80, SETVI: effective dose for growth reduction of 80 percent; for pest or weed control at 140 g/ha: 140 g ai/ha
Procedure: as §1, §2, §3, §4

KCHSC (kochia) = type: in vivo, Kochia scoparia; settings: for pest or weed control at 35 g/ha / pest or weed control at 70 g/ha / pest or weed control at 140 g/ha: Bassia scoparia, post-emergence, 504 h, postemergence, read-out: Visual Growth Reduction (%) 21 Days After Application, KCHSC; for pest or weed control at 35 g/ha: 35 g ai/ha; for pest or weed control at 70 g/ha: 70 g ai/ha; for GR50, KCHSC: effective dose for growth reduction of 50 percent; for GR50, KCHSC / GR80, KCHSC: probit analysis; for GR80, KCHSC: effective dose for growth reduction of 80 percent; for pest or weed control at 140 g/ha: 140 g ai/ha
Procedure: as §1, §2, §3, §4

SMILES	pest or weed control at 35 g/ha (APESV (windgrass))	pest or weed control at 70 g/ha (APESV (windgrass))	GR50, APESV (APESV (windgrass))	GR80, APESV (APESV (windgrass))	pest or weed control at 35 g/ha (HORSS)	pest or weed control at 70 g/ha (HORSS)	GR20, HORSS (HORSS)	pest or weed control at 35 g/ha (LOLSS)	pest or weed control at 70 g/ha (LOLSS)	pest or weed control at 35 g/ha (TRZSS)	pest or weed control at 70 g/ha (TRZSS)	GR20, TRZSS (TRZSS)	pest or weed control at 35 g/ha (SETVI (green foxtail))	pest or weed control at 70 g/ha (SETVI (green foxtail))	GR50, SETVI (SETVI (green foxtail))	GR80, SETVI (SETVI (green foxtail))	pest or weed control at 35 g/ha (KCHSC (kochia))	pest or weed control at 70 g/ha (KCHSC (kochia))	GR50, LOLSS (LOLSS)	GR80, LOLSS (LOLSS)	also measured
Cc1c(-c2ccc(C(F)(F)F)nc2)nc(C(=O)O)c(Cl)c1N [Compound 51, 4-amino-5-chloro-3-methyl-6′-(trifluoromethyl)-[2,3′-bipyridine]-6-carboxylic acid]	0 to 29%	60 to 74%	63 g ai/ha	139 g ai/ha	60 to 74%	75 to 84%	1 g ai/ha	0 to 29%	0 to 29%	60 to 74%	75 to 84%	1 g ai/ha	75 to 84%	85 to 94%	26 g ai/ha	47 g ai/ha	0 to 29%	0 to 29%			
COC(=O)c1nc(-c2ccc(C(F)(F)F)nc2)c(F)c(N)c1Cl [Compound 59, methyl 4-amino-5-chloro-3-fluoro-6′-(trifluoromethyl)-[2,3′-bipyridine]-6-carboxylate]	30 to 44%	75 to 84%	42 g ai/ha	72 g ai/ha	75 to 84%	75 to 84%	4 g ai/ha	0 to 29%	30 to 44%	60 to 74%	75 to 84%	4 g ai/ha	45 to 59%	85 to 94%	34 g ai/ha	61 g ai/ha	60 to 74%	75 to 84%	>140 g ai/ha	>140 g ai/ha	GR50, KCHSC (KCHSC (kochia)): 27 g ai/ha; GR80, KCHSC (KCHSC (kochia)): 57 g ai/ha
Nc1c(F)c(-c2ccc(OC(F)F)nc2)nc(C(=O)O)c1Cl [Compound 66]	0 to 29%	0 to 29%	130 g ai/ha	>140 g ai/ha	60 to 74%	60 to 74%	15 g ai/ha	0 to 29%	0 to 29%	75 to 84%	85 to 94%	8 g ai/ha	30 to 44%	60 to 74%	49 g ai/ha	112 g ai/ha	0 to 29%	45 to 59%	>140 g ai/ha	>140 g ai/ha	pest or weed control at 140 g/ha (APESV (windgrass)): 60 to 74%; pest or weed control at 140 g/ha (HORSS): 85 to 94%; pest or weed control at 140 g/ha (LOLSS): 30 to 44%; pest or weed control at 140 g/ha (TRZSS): 95 to 100%; pest or weed control at 140 g/ha (SETVI (green foxtail)): 75 to 84%; pest or weed control at 140 g/ha (KCHSC (kochia)): 60 to 74%; GR50, KCHSC (KCHSC (kochia)): 80 g ai/ha; GR80, KCHSC (KCHSC (kochia)): >140 g ai/ha
COC(=O)c1nc(-c2ccc(OC(F)F)nc2)c(F)c(N)c1Cl [Compound 71]	0 to 29%	0 to 29%	>140 g ai/ha	>140 g ai/ha	30 to 44%	60 to 74%	26 g ai/ha	0 to 29%	0 to 29%	60 to 74%	75 to 84%	16 g ai/ha	30 to 44%	45 to 59%	72 g ai/ha	>140 g ai/ha	0 to 29%	60 to 74%	>140 g ai/ha	>140 g ai/ha	pest or weed control at 140 g/ha (APESV (windgrass)): 30 to 44%; pest or weed control at 140 g/ha (HORSS): 75 to 84%; pest or weed control at 140 g/ha (LOLSS): 30 to 44%; pest or weed control at 140 g/ha (TRZSS): 85 to 94%; pest or weed control at 140 g/ha (SETVI (green foxtail)): 75 to 84%; pest or weed control at 140 g/ha (KCHSC (kochia)): 60 to 74%; GR50, KCHSC (KCHSC (kochia)): 80 g ai/ha; GR80, KCHSC (KCHSC (kochia)): >140 g ai/ha
COC(=O)c1nc(-c2ccc(C(F)(F)F)nc2)c(Cl)c(N)c1Cl [Compound 83]	30 to 44%	30 to 44%	89 g ai/ha	>140 g ai/ha	75 to 84%	85 to 94%	3 g ai/ha	0 to 29%	60 to 74%	60 to 74%	75 to 84%	4 g ai/ha	0 to 29%	60 to 74%	63 g ai/ha	139 g ai/ha	0 to 29%	30 to 44%	59 g ai/ha	99 g ai/ha	GR50, KCHSC (KCHSC (kochia)): 113 g ai/ha; GR80, KCHSC (KCHSC (kochia)): >140 g ai/ha
